Measured values from the NIST ThermoML archive (doi:10.1007/s10765-010-0737-5).
Numbers after ± are expanded uncertainties.

Experiment: xn = mol fraction of the nth substance listed
Details: Liquid; for viscosity: 101 kPa, Capillary tube (Ostwald / Ubbelohde) method; for mass density: 101.3 kPa

CC(C)CCl [1-chloro-2-methylpropane] + CC(C)OC(C)C
Details | mass density [kg/m3] | viscosity [mPa·s]
283.15 K, x1 = 0.0549 | 740.509 ± 0.9 | 0.3695 ± 0.004
283.15 K, x1 = 0.091 | 745.071 ± 0.89 | 0.3728 ± 0.0041
283.15 K, x1 = 0.1977 | 758.96 ± 0.87 | 0.3837 ± 0.0042
283.15 K, x1 = 0.2934 | 772.077 ± 0.84 | 0.3947 ± 0.0042
283.15 K, x1 = 0.3911 | 785.941 ± 0.81 | 0.4069 ± 0.0043
283.15 K, x1 = 0.5137 | 804.21 ± 0.78 | 0.424 ± 0.0045
283.15 K, x1 = 0.6034 | 818.258 ± 0.75 | 0.438 ± 0.0046
283.15 K, x1 = 0.6769 | 830.206 ± 0.72 | 0.4502 ± 0.0047
283.15 K, x1 = 0.8059 | 852.473 ± 0.68 | 0.4739 ± 0.0049
283.15 K, x1 = 0.9111 | 871.773 ± 0.64 | 0.4955 ± 0.0051
283.15 K, x1 = 0.9646 | 881.981 ± 0.62 | 0.5074 ± 0.0052
283.15 K, x1 = 1 | 888.845 ± 0.6 | 0.5155 ± 0.0053
288.15 K, x1 = 0.0549 | 735.346 ± 0.91 | 0.3532 ± 0.0039
288.15 K, x1 = 0.091 | 739.888 ± 0.91 | 0.3565 ± 0.0039
288.15 K, x1 = 0.1977 | 753.737 ± 0.88 | 0.3666 ± 0.004
288.15 K, x1 = 0.2934 | 766.807 ± 0.85 | 0.3765 ± 0.0041
288.15 K, x1 = 0.3911 | 780.617 ± 0.82 | 0.3876 ± 0.0042
288.15 K, x1 = 0.5137 | 798.831 ± 0.79 | 0.403 ± 0.0043
288.15 K, x1 = 0.6034 | 812.821 ± 0.76 | 0.4152 ± 0.0044
288.15 K, x1 = 0.6769 | 824.734 ± 0.73 | 0.4261 ± 0.0045
288.15 K, x1 = 0.8059 | 846.936 ± 0.69 | 0.447 ± 0.0047
288.15 K, x1 = 0.9111 | 866.179 ± 0.65 | 0.4658 ± 0.0048
288.15 K, x1 = 0.9646 | 876.368 ± 0.63 | 0.4761 ± 0.0049
288.15 K, x1 = 1 | 883.211 ± 0.61 | 0.4833 ± 0.005
293.15 K, x1 = 0.0549 | 730.142 ± 0.93 | 0.3383 ± 0.0038
293.15 K, x1 = 0.091 | 734.678 ± 0.92 | 0.3412 ± 0.0038
293.15 K, x1 = 0.1977 | 748.467 ± 0.89 | 0.3504 ± 0.0039
293.15 K, x1 = 0.2934 | 761.481 ± 0.86 | 0.3595 ± 0.0039
293.15 K, x1 = 0.3911 | 775.245 ± 0.83 | 0.3694 ± 0.004
293.15 K, x1 = 0.5137 | 793.406 ± 0.8 | 0.3831 ± 0.0041
293.15 K, x1 = 0.6034 | 807.35 ± 0.77 | 0.3941 ± 0.0042
293.15 K, x1 = 0.6769 | 819.228 ± 0.74 | 0.4038 ± 0.0043
293.15 K, x1 = 0.8059 | 841.356 ± 0.7 | 0.4222 ± 0.0045
293.15 K, x1 = 0.9111 | 860.549 ± 0.66 | 0.4386 ± 0.0046
293.15 K, x1 = 0.9646 | 870.717 ± 0.64 | 0.4478 ± 0.0047
293.15 K, x1 = 1 | 877.539 ± 0.63 | 0.454 ± 0.0047
298.15 K, x1 = 0.0549 | 724.887 ± 0.94 | 0.3219 ± 0.0036
298.15 K, x1 = 0.091 | 729.395 ± 0.93 | 0.3247 ± 0.0037
298.15 K, x1 = 0.1977 | 743.114 ± 0.9 | 0.3337 ± 0.0037
298.15 K, x1 = 0.2934 | 756.06 ± 0.87 | 0.3423 ± 0.0038
298.15 K, x1 = 0.3911 | 769.763 ± 0.84 | 0.3515 ± 0.0039
298.15 K, x1 = 0.5137 | 787.825 ± 0.81 | 0.3644 ± 0.004
298.15 K, x1 = 0.6034 | 801.699 ± 0.78 | 0.3747 ± 0.0041
298.15 K, x1 = 0.6769 | 813.519 ± 0.76 | 0.3834 ± 0.0041
298.15 K, x1 = 0.8059 | 835.53 ± 0.71 | 0.4003 ± 0.0043
298.15 K, x1 = 0.9111 | 854.603 ± 0.67 | 0.4156 ± 0.0044
298.15 K, x1 = 0.9646 | 864.749 ± 0.65 | 0.4238 ± 0.0045
298.15 K, x1 = 1 | 871.533 ± 0.64 | 0.4296 ± 0.0045
303.15 K, x1 = 0.0549 | 719.603 ± 0.95 | 0.3043 ± 0.0035
303.15 K, x1 = 0.091 | 724.11 ± 0.94 | 0.3069 ± 0.0035
303.15 K, x1 = 0.1977 | 737.798 ± 0.91 | 0.316 ± 0.0036
303.15 K, x1 = 0.2934 | 750.738 ± 0.88 | 0.3246 ± 0.0036
303.15 K, x1 = 0.3911 | 764.421 ± 0.86 | 0.3341 ± 0.0037
303.15 K, x1 = 0.5137 | 782.446 ± 0.82 | 0.3469 ± 0.0038
303.15 K, x1 = 0.6034 | 796.305 ± 0.79 | 0.357 ± 0.0039
303.15 K, x1 = 0.6769 | 808.11 ± 0.77 | 0.3659 ± 0.004
303.15 K, x1 = 0.8059 | 830.111 ± 0.72 | 0.3826 ± 0.0041
303.15 K, x1 = 0.9111 | 849.196 ± 0.68 | 0.3975 ± 0.0043
303.15 K, x1 = 0.9646 | 859.307 ± 0.66 | 0.4058 ± 0.0043
303.15 K, x1 = 1 | 866.096 ± 0.65 | 0.4112 ± 0.0044
308.15 K, x1 = 0.0549 | 714.28 ± 0.96 | 0.2896 ± 0.0034
308.15 K, x1 = 0.091 | 718.759 ± 0.95 | 0.2926 ± 0.0034
308.15 K, x1 = 0.1977 | 732.397 ± 0.92 | 0.3012 ± 0.0035
308.15 K, x1 = 0.2934 | 745.3 ± 0.89 | 0.3094 ± 0.0035
308.15 K, x1 = 0.3911 | 758.935 ± 0.87 | 0.3184 ± 0.0036
308.15 K, x1 = 0.5137 | 776.901 ± 0.83 | 0.3308 ± 0.0037
308.15 K, x1 = 0.6034 | 790.719 ± 0.8 | 0.3404 ± 0.0038
308.15 K, x1 = 0.6769 | 802.492 ± 0.78 | 0.3489 ± 0.0039
308.15 K, x1 = 0.8059 | 824.422 ± 0.73 | 0.3647 ± 0.004
308.15 K, x1 = 0.9111 | 843.468 ± 0.69 | 0.3791 ± 0.0041
308.15 K, x1 = 0.9646 | 853.542 ± 0.67 | 0.3867 ± 0.0042
308.15 K, x1 = 1 | 860.319 ± 0.66 | 0.3921 ± 0.0042
313.15 K, x1 = 0.0549 | 708.887 ± 0.97 | 0.2761 ± 0.0032
313.15 K, x1 = 0.091 | 713.334 ± 0.96 | 0.2788 ± 0.0033
313.15 K, x1 = 0.1977 | 726.882 ± 0.93 | 0.287 ± 0.0033
313.15 K, x1 = 0.2934 | 739.693 ± 0.91 | 0.2948 ± 0.0034
313.15 K, x1 = 0.3911 | 753.227 ± 0.88 | 0.3033 ± 0.0035
313.15 K, x1 = 0.5137 | 771.077 ± 0.84 | 0.315 ± 0.0036
313.15 K, x1 = 0.6034 | 784.802 ± 0.81 | 0.324 ± 0.0036
313.15 K, x1 = 0.6769 | 796.487 ± 0.79 | 0.3322 ± 0.0037
313.15 K, x1 = 0.8059 | 818.264 ± 0.75 | 0.3472 ± 0.0038
313.15 K, x1 = 0.9111 | 837.168 ± 0.71 | 0.3607 ± 0.004
313.15 K, x1 = 0.9646 | 847.176 ± 0.69 | 0.3677 ± 0.004
313.15 K, x1 = 1 | 853.902 ± 0.67 | 0.3726 ± 0.0041
